Results as given in publication PMC11672400, “Synthesis, Spectroscopic Characterization, Structural Analysis, and Evaluation of Anti-Tumor, Antimicrobial, and Antibiofilm Activities of Halogenoaminopyrazoles Derivatives” (Antibiotics, 2024).
Values after ≈ are worked out from the molar mass of the structure shown. Like-named read-outs stand apart in the source and are kept apart here.

How the values were obtained:
[1] = test system: Pseudomonas aeruginosa ATCC27853; experiment: Qualitative evaluation of antimicrobial activity (inhibition zone, spot on agar); assay type: cell-based; design: key: (+) inhibited bacterial growth; (-) did not inhibit bacterial growth; conditions: 0.06 g/2 mL DMSO, 5 µL spot
Protocol: (§1) For testing the antimicrobial/antibiofilm activity, the concentration of the studied compounds was identical to 0.06 g/2 mL DMSO. 0.5 Standard McFarland suspension was used, which was inoculated onto Mueller Hinton agar plates, (Remel, Lenexa, KS, USA), 5 µL of each compound was spotted and incubated overnight at 37 °C. Antimicrobial activity was observed as zones of inhibition formed around the spot.

[2] = test system: Escherichia coli ATCC25922; experiment: as above; assay type: cell-based; design: key: (+) inhibited bacterial growth; (-) did not inhibit bacterial growth; conditions: 0.06 g/2 mL DMSO, 5 µL spot
Protocol: as §1

[3] = test system: Staphylococcus aureus ATCC25923; experiment: as above; assay type: cell-based; design: key: (+) inhibited bacterial growth; (-) did not inhibit bacterial growth; conditions: 0.06 g/2 mL DMSO, 5 µL spot
Protocol: as §1

[4] = test system: Enterococcus faecalis ATCC29212; experiment: as above; assay type: cell-based; design: key: (+) inhibited bacterial growth; (-) did not inhibit bacterial growth; conditions: 0.06 g/2 mL DMSO, 5 µL spot
Protocol: as §1

[5] = test system: NCTC (clone 929) mouse fibroblast cells; experiment: MTT cell viability / cytotoxicity on normal fibroblasts; assay type: cell-based; conditions: Mus musculus, NCTC clone 929; NCTC normal fibroblasts, MTT, 48 h
From the text: (§2) Merck chemicals were utilized.
(§3) Untreated cells were used as control, considered 100% viable cells.

[6] = as above; assay type: cell-based, mouse; conditions: mouse, read-out: Cell viability on NCTC cells (%)
From the text: as §2, §3

[7] = test system: Pseudomonas aeruginosa ATCC27853; experiment: Antibiofilm assay (crystal violet), MBIC; assay type: cell-based; conditions: 37 °C; for minimal effective concentration: Pseudomonas aeruginosa, ATCC27853, 24 h, read-out: Minimum biofilm inhibition concentration (MBIC), Pseudomonas aeruginosa ATCC27853
Summary of the method: (§4)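 Biofilms grown in nutrient broth with test substances for 24 h at 37 °C. After rinsing with sterile physiological water, attached cells were fixed 5 min with methanol, then crystal violet stained.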

[8] = test system: Escherichia coli ATCC25922; experiment: Antibiofilm assay (crystal violet), MBIC; assay type: cell-based; conditions: 37 °C; for minimal effective concentration: Escherichia coli, ATCC25922, 24 h, read-out: Minimum biofilm inhibition concentration (MBIC), Escherichia coli ATCC25922
Summary of the method: as §4

[9] = test system: Staphylococcus aureus ATCC25923; experiment: Antibiofilm assay (crystal violet), MBIC; assay type: cell-based; conditions: 24 h, 37 °C; for minimal effective concentration: Staphylococcus aureus, ATCC25923, read-out: Minimum biofilm inhibition concentration (MBIC), Staphylococcus aureus ATCC25923
Summary of the method: as §4

[10] = test system: Enterococcus faecalis ATCC29212; experiment: Antibiofilm assay (crystal violet), MBIC; assay type: cell-based; conditions: Enterococcus faecalis, ATCC29212, 24 h, 37 °C, read-out: Minimum biofilm inhibition concentration (MBIC), Enterococcus faecalis ATCC29212
Summary of the method: as §4

[11] = test system: Pseudomonas aeruginosa ATCC27853; experiment: MIC by serial microdilution in liquid medium; assay type: cell-based; conditions: Pseudomonas aeruginosa, ATCC27853; 24 h, 37 °C; read-out: Minimum inhibitory concentration, Pseudomonas aeruginosa ATCC27853
Summary of the method: (§5)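 Twofold serial dilutions from a DMSO stock (10 mg/mL) in Tryptone Soy Broth, inoculated with 10 µL of a 10^6 CFU/mL suspension, incubated 24 h at 37 °C. Growth judged visually and by OD 620 nm; MIC (µg/mL) is the lowest concentration without growth, run in triplicate.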

[12] = test system: Escherichia coli ATCC25922; experiment: MIC by serial microdilution in liquid medium; assay type: cell-based; conditions: 24 h, 37 °C; for MIC: Escherichia coli, ATCC25922, read-out: Minimum inhibitory concentration, Escherichia coli ATCC25922
Summary of the method: as §5

[13] = test system: Staphylococcus aureus ATCC25923; experiment: MIC by serial microdilution in liquid medium; assay type: cell-based; conditions: 24 h, 37 °C; for MIC: Staphylococcus aureus, ATCC25923, read-out: Minimum inhibitory concentration, Staphylococcus aureus ATCC25923
Summary of the method: as §5

[14] = test system: Enterococcus faecalis ATCC29212; experiment: MIC by serial microdilution in liquid medium; assay type: cell-based; conditions: Enterococcus faecalis, ATCC29212; 24 h, 37 °C; read-out: Minimum inhibitory concentration, Enterococcus faecalis ATCC29212
Summary of the method: as §5

[15] = test system: HEp-2 epithelial tumor cells; experiment: MTT cell viability / anti-tumor activity; conditions: Homo sapiens; for viability at 3.1 µg/mL / viability at 6.25 µg/mL / viability at 12.5 µg/mL / viability at 25 µg/mL / viability at 50 µg/mL: read-out: Cell viability on Hep2 cells (%); for IC50: read-out: IC50 µg/mL on HEp-2 Cells 48 h, HEp-2 epithelial tumor cells, MTT, 48 h
Protocol: The cytotoxicity of the halogenoaminopyrazole derivatives 4a–f and 5a–e was tested on L929 mouse fibroblast cells, and their anti-tumor activity was evaluated on the human carcinoma epithelial cell line HEp-2. The experiments were performed in a concentration range of 3.1–50 μg/mL.
The MTT test was used, 3-(4,5-dimethylthiazol-2-yl)-2,5-diphenyl tetrazolium bromide), which is reduced to insoluble purple-blue formazan crystals precipitated by living cells. Cell viability assessed using the MTT assay reflects the activity of mitochondrial enzymes in treated cells compared to the control culture of untreated cells.
To assess the biocompatibility of the substances, a stable mouse fibroblast cell line, NCTC (clone 929), was grown in minimal essential medium (MEM) with 10% fetal bovine serum (FBS) and 2 mM L-glutamine, along with 100 U/mL penicillin, 100 µg/mL streptomycin, and 500 µg/mL neomycin. The concentration of the compounds used was 0.06 g/2 mL DMSO.
In cytotoxicity experiments, compound solutions were utilized at concentrations of 3.1 μg/mL, 6.25 μg/mL, 12.5 μg/mL, 25 μg/mL, and 50 μg/mL. The NCTC cell suspension was placed into 96-well culture plates with a concentration of 4 × 10^4 cells/mL and incubated at 37 °C for 24 h in a 5% CO2 humidified atmosphere. The compounds under study were placed in sets of three at varying concentrations ranging from 3.1 μg/mL to 50 μg/mL in every well, and the plates were then kept under standard conditions for 48 h. Cell viability was determined through the utilization of the MTT assay. Next, the MTT solution was removed, then isopropanol was added to solubilize the formazan crystals. The colored solution was then measured for absorbance at 570 nm using a Berthold Technologies, LB 940 microplate reader (Bad Wildbad, Germany). The outcomes were determined based on Formula (1) while considering that the recorded optical density is directly related to the number of viable cells in the cell culture being examined [35, 36]. % cell viability = (OD sample/OD control) × 100%(1)
For each tested compound, a graph representing percentage cell viability versus concentrations (in the range 3.1–50 µg/mL) was obtained. Then, the IC50 value was calculated by using ED50 plus V1.0 software.

SMILES	Qualitative antimicrobial activity, Pseudomonas aeruginosa ATCC27853 [1]	Qualitative antimicrobial activity, Escherichia coli ATCC25922 [2]	Qualitative antimicrobial activity, Staphylococcus aureus ATCC25923 [3]	Qualitative antimicrobial activity, Enterococcus faecalis ATCC29212 [4]	melting point [°C]	IC50 [5] [µg/mL]	viability at 24 h, 3.1 µg/mL [6] [%]	viability at 48 h, 3.1 µg/mL [6] [%]	viability at 24 h, 6.25 µg/mL [6] [%]	viability at 48 h, 6.25 µg/mL [6] [%]	viability at 24 h, 12.5 µg/mL [6] [%]	viability at 48 h, 12.5 µg/mL [6] [%]	viability at 24 h, 25 µg/mL [6] [%]	viability at 48 h, 25 µg/mL [6] [%]	viability at 24 h, 50 µg/mL [6] [%]	viability at 48 h, 50 µg/mL [6] [%]	minimal effective concentration [7] [µg/mL]	minimal effective concentration [8] [µg/mL]	minimal effective concentration [9] [µg/mL]	minimal effective concentration [10] [µg/mL]	further results
Cc1nn(CN(Cn2nc(C)c([N+](=O)[O-])c2C)c2ccc(F)cc2)c(C)c1[N+](=O)[O-] [5a, N,N-bis-[(3,5-dimetyl-4-nitro-1H-pyrazol-1-yl)-methyl]-4-fluoroaniline]	+	+	+	-	78 to 80	> 50	97.7 ± 1.8	87.19 ± 0.7	98.3 ± 2.22	88.7 ± 2.4	100 ± 2.07	98.2 ± 2.04	97.4 ± 2.4	93.7 ± 1.17	88.6 ± 2.66	92.5 ± 1.32	460	460	230	930 ± 0.14	Minimum biofilm inhibition concentration (MBIC), Pseudomonas aeruginosa ATCC27853 ([7]; 24 h): 460 ± 0.12 µg/mL; Minimum biofilm inhibition concentration (MBIC), Escherichia coli ATCC25922 ([8]; 24 h): 460 ± 0.12 µg/mL; Minimum biofilm inhibition concentration (MBIC), Staphylococcus aureus ATCC25923 [9]: 230 ± 0.05 µg/mL; MIC [11]: 460 ± 0.04 µg/mL (≈ 1100 µM); Minimum inhibitory concentration, Escherichia coli ATCC25922 [12]: 460 ± 0.06 µg/mL (≈ 1100 µM); MIC [12]: 460 µg/mL (≈ 1100 µM); Minimum inhibitory concentration, Staphylococcus aureus ATCC25923 [13]: 460 ± 0.03 µg/mL (≈ 1100 µM); MIC [13]: 460 µg/mL (≈ 1100 µM); MIC [14]: 930 ± 0.06 µg/mL (≈ 2230 µM); viability at 3.1 µg/mL ([15]; HEp-2, 24 h): 90.8 ± 1.1%; viability at 6.25 µg/mL ([15]; HEp-2, 24 h): 104.4 ± 0.32%; viability at 12.5 µg/mL ([15]; HEp-2, 24 h): 96.6 ± 3.1%; viability at 25 µg/mL ([15]; HEp-2, 24 h): 82.7 ± 1.85%; viability at 50 µg/mL ([15]; HEp-2, 24 h): 57.2 ± 1.13%; viability at 3.1 µg/mL ([15]; HEp-2, 48 h): 90.1 ± 2.22%; viability at 6.25 µg/mL ([15]; HEp-2, 48 h): 85.2 ± 3.13%; viability at 12.5 µg/mL ([15]; HEp-2, 48 h): 80.1 ± 1.54%; viability at 25 µg/mL ([15]; HEp-2, 48 h): 67.4 ± 3.23%; viability at 50 µg/mL ([15]; HEp-2, 48 h): 38.8 ± 0.71%; IC50 ([15]; HEp-2, 48 h): 40.5 ± 0.79 µg/mL (≈ 97.1 µM)
Cc1nn(CN(Cn2nc(C)c([N+](=O)[O-])c2C)c2cccc(Cl)c2)c(C)c1[N+](=O)[O-] [5e, N,N-bis-[(3,5-dimetyl-4-nitro-1H-pyrazol-1-yl)-methyl]-3-chloroaniline]	-	-	-	-	154 to 155	20.3 ± 0.45 (≈ 46.8 µM)	101.9 ± 0.73	95.71 ± 0.5	98.57 ± 0.27	89.47 ± 0.34	88.26 ± 0.32	69.25 ± 0.3	77.7 ± 0.88	40.3 ± 0.68	65.79 ± 0.42	26.4 ± 0.46	930 ± 0.15	930 ± 0.15	930 ± 0.15	930 ± 0.15	MIC [11]: 1870 ± 0.04 µg/mL (≈ 4310 µM); MIC [12]: 1870 ± 0.08 µg/mL (≈ 4310 µM); MIC [13]: 930 ± 0.04 µg/mL (≈ 2140 µM); MIC [14]: 1870 ± 0.09 µg/mL (≈ 4310 µM); viability at 3.1 µg/mL ([15]; HEp-2, 24 h): 103.7 ± 0.73%; viability at 6.25 µg/mL ([15]; HEp-2, 24 h): 102.4 ± 0.28%; viability at 12.5 µg/mL ([15]; HEp-2, 24 h): 82.29 ± 0.32%; viability at 25 µg/mL ([15]; HEp-2, 24 h): 70.5 ± 0.88%; viability at 50 µg/mL ([15]; HEp-2, 24 h): 59.94 ± 0.42%; viability at 3.1 µg/mL ([15]; HEp-2, 48 h): 102.5 ± 0.48%; viability at 6.25 µg/mL ([15]; HEp-2, 48 h): 96.06 ± 0.34%; viability at 12.5 µg/mL ([15]; HEp-2, 48 h): 77.4 ± 0.63%; viability at 25 µg/mL ([15]; HEp-2, 48 h): 60.3 ± 0.67%; viability at 50 µg/mL ([15]; HEp-2, 48 h): 37.7 ± 0.46%; IC50 ([15]; HEp-2, 48 h): 31.7 ± 0.48 µg/mL (≈ 73.1 µM)
